Measured values: PubChem BioAssay AID1918930 (Molecular Pharmacology Branch, DTP, NCI, 2023)

System: 233499-124-R-J3-PDC complex spheroid viability, % test/control
Assay: Anticancer human tumor 233499-124-R-J3-PDC patient-derived colon adenocarcinoma cell line growth inhibition
Details: for IC50: curve of first compound; for viability, T/C: stronger effect = lower value
Outline: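 Multicellular complex spheroids of tumor cells with human endothelial cells (HUVEC) and mesenchymal stem cells; the LSD1 inhibitor iadademstat was combined with standard-of-care or investigational agents. Top concentration at or near clinical Cmax, half-log dilutions; final DMSO ≤0.25%.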

[1] = second compound 0.1 µM, first compound 0.000316 µM
[2] = second compound 0.1 µM, first compound 0.001 µM
[3] = second compound 0.1 µM, first compound 0.00316 µM
[4] = second compound 0.1 µM, first compound 0.01 µM
[5] = second compound 0.1 µM, first compound 0.0316 µM
[6] = second compound 0.1 µM, first compound 0.1 µM
[7] = second compound 0.316 µM, first compound 0.000316 µM
[8] = second compound 0.316 µM, first compound 0.001 µM
[9] = second compound 0.316 µM, first compound 0.00316 µM
[10] = second compound 0.316 µM, first compound 0.01 µM
[11] = second compound 0.316 µM, first compound 0.0316 µM
[12] = second compound 0.316 µM, first compound 0.1 µM
[13] = second compound 1 µM, first compound 0.000316 µM
[14] = second compound 1 µM, first compound 0.001 µM
[15] = second compound 1 µM, first compound 0.00316 µM
[16] = second compound 1 µM, first compound 0.01 µM
[17] = second compound 1 µM, first compound 0.0316 µM
[18] = second compound 1 µM, first compound 0.1 µM
[19] = second compound 3.16 µM, first compound 0.000316 µM
[20] = second compound 3.16 µM, first compound 0.001 µM
[21] = second compound 3.16 µM, first compound 0.00316 µM
[22] = second compound 3.16 µM, first compound 0.01 µM
[23] = second compound 3.16 µM, first compound 0.0316 µM
[24] = second compound 3.16 µM, first compound 0.1 µM
[25] = second compound 10 µM, first compound 0.000316 µM
[26] = second compound 10 µM, first compound 0.001 µM
[27] = second compound 10 µM, first compound 0.00316 µM
[28] = second compound 10 µM, first compound 0.01 µM
[29] = second compound 10 µM, first compound 0.0316 µM
[30] = second compound 10 µM, first compound 0.1 µM
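Also: spheroids exposed to agents for one week before readout.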

**Q.** What does the source list for CC(C)CC(NC(=O)C(Cc1ccccc1)NC(=O)c1cnccn1)B(O)O (stereo not given) + NC1CCC(NC2CC2c2ccccc2)CC1?
**A.** IC50 (second compound 0.1 µM): 2.62 nM; IC50 (second compound 0.316 µM): 2.93 nM; IC50 (second compound 1 µM): 2.18 nM; IC50 (second compound 3.16 µM): 1.95 nM; IC50 (second compound 10 µM): 2.83 nM; viability, T/C [1]: 105%; viability, T/C [2]: 114%; viability, T/C [3]: 38.4%; viability, T/C [4]: 0.08%; viability, T/C [5]: 1.9%; viability, T/C [6]: 2.95%; viability, T/C [7]: 110%; viability, T/C [8]: 107%; viability, T/C [9]: 46%; viability, T/C [10]: 0.06%; viability, T/C [11]: 0.03%; viability, T/C [12]: 1.83%; viability, T/C [13]: 109%; viability, T/C [14]: 100%; viability, T/C [15]: 25.9%; viability, T/C [16]: 0.26%; viability, T/C [17]: 3.69%; viability, T/C [18]: 3.26%; viability, T/C [19]: 90.9%; viability, T/C [20]: 94.5%; viability, T/C [21]: 19.2%; viability, T/C [22]: 0.04%; viability, T/C [23]: 2.68%; viability, T/C [24]: 0.1%; viability, T/C [25]: 87.7%; viability, T/C [26]: 80.8%; viability, T/C [27]: 46.9%; viability, T/C [28]: 0.13%; viability, T/C [29]: 0.6%; viability, T/C [30]: 0.18%

**Q.** For CC(C)CC(NC(=O)CNC(=O)c1cc(Cl)ccc1Cl)B1OC(=O)CC(CC(=O)O)(C(=O)O)O1 (stereo not given) + NC1CCC(NC2CC2c2ccccc2)CC1, which IC50 (second compound 0.1 µM) is on record?
**A.** The IC50 was 5.11 nM.

**Q.** And the IC50 (second compound 0.316 µM)?
**A.** The IC50 was 5.49 nM.

**Q.** And the IC50 (second compound 1 µM)?
**A.** The IC50 was 4.87 nM.

**Q.** What about the IC50 (second compound 3.16 µM) of the same compound?
**A.** The IC50 was 4.14 nM.

**Q.** And the IC50 (second compound 10 µM)?
**A.** The IC50 was 3.33 nM.

**Q.** And the viability, T/C [1]?
**A.** Its viability, T/C is 104%.

**Q.** What about the viability, T/C [2] of the same compound?
**A.** The viability, T/C was 90.2%.

**Q.** And the viability, T/C [3]?
**A.** Its viability, T/C is 81.8%.

**Q.** And the viability, T/C [4]?
**A.** Its viability, T/C is 4.56%.

**Q.** What about the viability, T/C [5] of the same compound?
**A.** Its viability, T/C is 6.96%.

**Q.** And the viability, T/C [6]?
**A.** Its viability, T/C is 5.21%.

**Q.** What about the viability, T/C [7] of the same compound?
**A.** The viability, T/C was 109%.

**Q.** What about the viability, T/C [8] of the same compound?
**A.** The viability, T/C was 96.2%.

**Q.** And the viability, T/C [9]?
**A.** The viability, T/C was 88.8%.

**Q.** And the viability, T/C [10]?
**A.** The viability, T/C was 7.64%.

**Q.** What about the viability, T/C [11] of the same compound?
**A.** Its viability, T/C is 8.46%.

**Q.** What about the viability, T/C [12] of the same compound?
**A.** Its viability, T/C is 0.08%.

**Q.** What about the viability, T/C [13] of the same compound?
**A.** The viability, T/C was 88.7%.

**Q.** And the viability, T/C [14]?
**A.** Its viability, T/C is 78.1%.

**Q.** And the viability, T/C [15]?
**A.** The viability, T/C was 75.8%.

**Q.** And the viability, T/C [16]?
**A.** Its viability, T/C is 7.01%.

**Q.** What about the viability, T/C [17] of the same compound?
**A.** Its viability, T/C is 4.17%.

**Q.** What about the viability, T/C [18] of the same compound?
**A.** Its viability, T/C is 2.6%.

**Q.** What about the viability, T/C [19] of the same compound?
**A.** The viability, T/C was 77.2%.

**Q.** And the viability, T/C [20]?
**A.** Its viability, T/C is 70.2%.

**Q.** And the viability, T/C [21]?
**A.** The viability, T/C was 63.4%.

**Q.** What about the viability, T/C [22] of the same compound?
**A.** Its viability, T/C is 6.41%.

**Q.** And the viability, T/C [23]?
**A.** The viability, T/C was 0.1%.

**Q.** What about the viability, T/C [24] of the same compound?
**A.** Its viability, T/C is 3.85%.

**Q.** What about the viability, T/C [25] of the same compound?
**A.** Its viability, T/C is 81.8%.

**Q.** What about the viability, T/C [26] of the same compound?
**A.** Its viability, T/C is 73.7%.

**Q.** What about the viability, T/C [27] of the same compound?
**A.** The viability, T/C was 52.8%.

**Q.** And the viability, T/C [28]?
**A.** The viability, T/C was 6.15%.

**Q.** What about the viability, T/C [29] of the same compound?
**A.** Its viability, T/C is 0.14%.

**Q.** And the viability, T/C [30]?
**A.** Its viability, T/C is 0.16%.
